≈ marks a conversion by molar mass, not a printed value. Where two headings read alike, the source gives them in different places.
Tests used:
M. tuberculosis H37Rv [1] = experiment: microbe, parasite or virus in culture; type: cell-based; conditions: Mycobacterium tuberculosis, read-out: MIC90 MABA
M. tuberculosis H37Rv [2] = experiment: microbe, parasite or virus in culture; type: cell-based; conditions: Mycobacterium tuberculosis, read-out: MIC90 LORA

`CO[C@H]1/C=C/O[C@@]2(C)Oc3c(C)c(O)c4c(O)c(c(/C=N/N5CCN(C)CC5)c(O)c4c3C2=O)NC(=O)/C(C)=C\C=C\[C@H](C)[C@H](O)[C@@H](C)[C@@H](O)[C@@H](C)[C@H](OC(C)=O)[C@@H]1C` [Rifampin (RMP), Rifampin] was tested, and the MIC90 (M. tuberculosis H37Rv [1]) was 0.13 µM (≈ 0.107 µg/mL) and the MIC90 (M. tuberculosis H37Rv [2]) was 0.46 µM (≈ 0.379 µg/mL).

From paper PMC5323270 (SLAS discovery, 2016)
